“And” between values parts separate entries of the source, which are not always exact repeats. Identical values can stand only once. Toxic doses and inconclusive results are not listed.

In the test the test system is P388 leukemia ip, CD2F1 mice, survival T/C. Nature of the test: NCI In Vivo Anticancer Drug Screen. Data for tumor model P388 Leukemia (intraperitoneal) in CD2F1 (CDF1) mice. Particulars: endpoint: median survival time, higher = longer survival. A digest of the protocol: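 Mice carrying the transplanted tumor received test compound or vehicle. Survival was recorded in each group, and the value is the treated-group measurement divided by that of the vehicle-treated control group.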

Setting [1] is: dose: 60.0 mg/kg/injection, schedule: Q01DX005 (ip), vehicle: saline with Tween-80.
The mark [2] stands for this setting: dose: 120.0 mg/kg/injection, schedule: Q01DX005 (ip), vehicle: saline with Tween-80.
The mark [3] stands for this setting: dose: 240.0 mg/kg/injection, schedule: Q01DX005 (ip), vehicle: saline with Tween-80.
[4] abbreviates: dose: 50.0 mg/kg/injection, schedule: Q01DX005 (ip), vehicle: saline with Tween-80.
[5] abbreviates: dose: 100.0 mg/kg/injection, schedule: Q01DX005 (ip), vehicle: saline with Tween-80.
Where [6] appears, read: dose: 200.0 mg/kg/injection, schedule: Q01DX005 (ip), vehicle: saline with Tween-80.
[7] abbreviates: dose: 100.0 mg/kg/injection, schedule: Q01DX001 (ip), vehicle: Klucel (hydroxypropylcellulose) (HPC).
[8] abbreviates: dose: 200.0 mg/kg/injection, schedule: Q01DX009 (ip), vehicle: saline with Tween-80.
The mark [9] stands for this setting: dose: 50.0 mg/kg/injection, schedule: Q01DX005 (ip), vehicle: Klucel (hydroxypropylcellulose) (HPC).
Setting [10] is: dose: 100.0 mg/kg/injection, schedule: Q01DX005 (ip), vehicle: Klucel (hydroxypropylcellulose) (HPC).
[11] abbreviates: dose: 200.0 mg/kg/injection, schedule: Q01DX005 (ip), vehicle: Klucel (hydroxypropylcellulose) (HPC).

For `COc1cccc2c1C(=O)c1c(O)c(CCl)cc(O)c1C2=O`, the T/C (dose: 3.75 mg/kg/injection, schedule: Q01DX005 (ip), vehicle: saline with Tween-80) is 99 % of control; the T/C (dose: 7.5 mg/kg/injection, schedule: Q01DX005 (ip), vehicle: saline with Tween-80) is 92 % of control; the T/C (dose: 15.0 mg/kg/injection, schedule: Q01DX005 (ip), vehicle: saline with Tween-80) was 89 % of control.

With `CCS/C(N)=C(\C#N)C(SCC)(SCC)SCC`, the T/C is, setting by setting: (dose: 50.0 mg/kg/injection, schedule: Q04DX003 (ip), vehicle: saline) 107 % of control; (dose: 100.0 mg/kg/injection, schedule: Q04DX003 (ip), vehicle: saline) 106 % of control.

On to `COc1ccc(C(c2cc(C(C)(C)C)c(O)c(C(C)(C)C)c2)n2ccnc2)cc1` (stereo not given), for which the T/C was 105 % of control (dose: 50.0 mg/kg/injection, schedule: Q01DX005 (ip), vehicle: distilled water + alcohol); 103 % of control (dose: 100.0 mg/kg/injection, schedule: Q01DX005 (ip), vehicle: distilled water + alcohol); 99 % of control (dose: 200.0 mg/kg/injection, schedule: Q01DX005 (ip), vehicle: distilled water + alcohol).

As for `O=c1oc2cc(O)ccc2cc1-c1nc2ccccc2o1`, the T/C is 97 % of control under setting [1], 98 % of control under setting [2] and 96 % of control under setting [3].

In the case of `COc1ccc(-n2cnc3[nH]ncc3c2=O)cc1`, the T/C reads like this: (dose: 7.5 mg/kg/injection, schedule: Q01DX005 (ip), vehicle: Klucel (hydroxypropylcellulose) (HPC)) 104 % of control; (dose: 15.0 mg/kg/injection, schedule: Q01DX005 (ip), vehicle: Klucel (hydroxypropylcellulose) (HPC)) 106 % of control; (dose: 30.0 mg/kg/injection, schedule: Q01DX005 (ip), vehicle: Klucel (hydroxypropylcellulose) (HPC)) 110 % of control.

Consider `CCOC(=O)C(Cc1ccccc1Cl)(Cc1ccccc1Cl)c1ccccc1`, for which the T/C by setting is: (dose: 266.0 mg/kg/injection, schedule: Q01DX009 (ip), vehicle: saline with Tween-80) 98 % of control; (dose: 400.0 mg/kg/injection, schedule: Q01DX009 (ip), vehicle: saline with Tween-80) 111 % of control; (dose: 600.0 mg/kg/injection, schedule: Q01DX009 (ip), vehicle: saline with Tween-80) 96 % of control.

Regarding `CC1=NN(C(=O)CC(=O)Nc2ccc(C(=O)O)cc2)C(=O)C1N=Nc1ccc(S(N)(=O)=O)cc1` (stereo not given), the T/C was 96 % of control under setting [4], 94 % of control under setting [5] and 93 % of control under setting [6].

As to `N#CCCn1nc(SC2CCCCC2)c(=O)[nH]c1=O`, the T/C was 108 % of control (dose: 25.0 mg/kg/injection, schedule: Q01DX005 (ip), vehicle: water); 103 % of control (dose: 50.0 mg/kg/injection, schedule: Q01DX005 (ip), vehicle: water); 98 % of control (dose: 100.0 mg/kg/injection, schedule: Q01DX005 (ip), vehicle: water); 108 % of control (dose: 200.0 mg/kg/injection, schedule: Q01DX005 (ip), vehicle: water).

On to `CC1=CC(=Nc2ccc(N(CCCl)CCCl)cc2)C(C)=C(C)C1=O`, for which the T/C under setting [7] was 116 % of control and 123 % of control.

`CCCCCCCCCCCC(=O)CCCC`: the T/C runs as follows: (dose: 100.0 mg/kg/injection, schedule: Q04DX003 (ip), vehicle: other) 104 % of control; (dose: 200.0 mg/kg/injection, schedule: Q04DX003 (ip), vehicle: other) 113 % of control; (dose: 400.0 mg/kg/injection, schedule: Q04DX003 (ip), vehicle: other) 118 % of control.

Turning to `CCCCC1(Cc2ccccc2)SC(=O)NC1=O` (stereo not given), the T/C by setting is: under setting [4], 98 % of control; under setting [5], 100 % of control; under setting [6], 91 % of control.

Regarding `CC(C)(C)c1ccc(C2=NNC(C(F)(F)F)=NN2)cc1`, the T/C is 110 % of control (dose: 50.0 mg/kg/injection, schedule: Q01DX009 (ip), vehicle: saline with Tween-80); 104 % of control (dose: 100.0 mg/kg/injection, schedule: Q01DX009 (ip), vehicle: saline with Tween-80); 119 % of control under setting [8].

For `CN(C)CCO/N=C1/CC[C@H]2[C@@H]3CC[C@H]4C[C@H](O)CC[C@]4(C)[C@H]3CC[C@]12C`, the T/C was 104 % of control (dose: 12.5 mg/kg/injection, schedule: Q01DX005 (ip), vehicle: Klucel (hydroxypropylcellulose) (HPC)); 95 % of control (dose: 25.0 mg/kg/injection, schedule: Q01DX005 (ip), vehicle: Klucel (hydroxypropylcellulose) (HPC)); 95 % of control under setting [9].

With `Clc1cccc(N(C2=NCCS2)C2=NCCS2)c1`, the T/C (dose: 25.0 mg/kg/injection, schedule: Q01DX009 (ip), vehicle: Klucel (hydroxypropylcellulose) (HPC)) is 107 % of control; the T/C (dose: 50.0 mg/kg/injection, schedule: Q01DX009 (ip), vehicle: Klucel (hydroxypropylcellulose) (HPC)) is 104 % of control; the T/C (dose: 100.0 mg/kg/injection, schedule: Q01DX009 (ip), vehicle: Klucel (hydroxypropylcellulose) (HPC)) is 107 % of control; the T/C (dose: 200.0 mg/kg/injection, schedule: Q01DX009 (ip), vehicle: Klucel (hydroxypropylcellulose) (HPC)) is 104 % of control.

For the molecule `CCOc1cccc2c1C(O)(C#Cc1ccccc1)c1cccc(OCC)c1C2(O)C#Cc1ccccc1` (stereo not given), the T/C was 87 % of control (dose: 100.0 mg/kg/injection, schedule: Q04DX002 (ip), vehicle: saline with Tween-80); 87 % of control (dose: 200.0 mg/kg/injection, schedule: Q04DX002 (ip), vehicle: saline with Tween-80); 91 % of control (dose: 400.0 mg/kg/injection, schedule: Q04DX002 (ip), vehicle: saline with Tween-80).

On to `O=[N+]([O-])c1cccc(N/N=C\c2cccc3c(/C=N/Nc4cccc([N+](=O)[O-])c4)c(Cl)n(-c4ccccc4)c23)c1`, for which the T/C under setting [7] is 86 % of control.

Consider `CN(C)C=C1C(=O)CCCC1=O`, for which the T/C reads like this: (dose: 60.0 mg/kg/injection, schedule: Q01DX005 (ip), vehicle: saline) 105 % of control; (dose: 120.0 mg/kg/injection, schedule: Q01DX005 (ip), vehicle: saline) 117 % of control.

As to `CC(C)OC(=O)CC1NS(=O)(=O)c2ccccc21` (stereo not given), the T/C is 103 % of control (dose: 50.0 mg/kg/injection, schedule: Q01DX005 (ip), vehicle: suspension in saline); 103 % of control (dose: 100.0 mg/kg/injection, schedule: Q01DX005 (ip), vehicle: suspension in saline); 100 % of control (dose: 200.0 mg/kg/injection, schedule: Q01DX005 (ip), vehicle: suspension in saline).

Turning to `c1ccc2c(c1)OC1OC2Oc2ccccc21`, the T/C reads like this: under setting [1], 100 % of control; under setting [2], 100 % of control; under setting [3], 101 % of control.

Regarding `Cc1ccc(S(=O)(=O)/N=C2\CCN(S(=O)(=O)c3ccc(C)cc3)N2S(=O)(=O)c2ccc(C)cc2)cc1`, the T/C is, setting by setting: under setting [9], 97 % of control; under setting [10], 94 % of control; under setting [11], 97 % of control.

For `CN(C)C1C(O)C2Oc3c(cc(O)c4c3C(=O)c3cc5c(c(O)c3C4=O)C(N3CCCC3)CC(C)(O)C5)C(C)(O2)C1O` (stereo not given), the T/C is, setting by setting: (dose: 3.12 mg/kg/injection, schedule: Q01DX009 (ip), vehicle: other) 113 % of control; (dose: 6.25 mg/kg/injection, schedule: Q01DX009 (ip), vehicle: other) 116 % of control; (dose: 12.5 mg/kg/injection, schedule: Q01DX009 (ip), vehicle: other) 122 % of control.

With `O=C1CC2C=CC2C1` (stereo not given), the T/C was 113 % of control (dose: 6.25 mg/kg/injection, schedule: Q01DX009 (ip), vehicle: saline); 103 % of control (dose: 12.5 mg/kg/injection, schedule: Q01DX009 (ip), vehicle: saline); 103 % of control (dose: 25.0 mg/kg/injection, schedule: Q01DX009 (ip), vehicle: saline); 95 % of control under setting [8].

Consider `CCN(CC)CCNc1ccc(COC(=O)NC)c2oc3ccc(OC(=O)NC)cc3c(=O)c12`, for which the T/C (dose: 3.13 mg/kg/injection, schedule: Q01DX005 (ip), vehicle: Klucel (hydroxypropylcellulose) (HPC)) is 123 % of control.

Turning to `NC(=O)/C(N=Nc1ccccc1S(=O)(=O)O)=N/Nc1ccccc1S(=O)(=O)O`, the T/C reads like this: under setting [9], 100 % of control; under setting [10], 101 % of control and 92 % of control; under setting [11], 101 % of control and 94 % of control.

As for `CN(C)c1cc(C(=O)O)nc(C(=O)O)c1`, the T/C runs as follows: (dose: 25.0 mg/kg/injection, schedule: Q01DX001 (ip), vehicle: Klucel (hydroxypropylcellulose) (HPC)) 101 % of control; (dose: 50.0 mg/kg/injection, schedule: Q01DX001 (ip), vehicle: Klucel (hydroxypropylcellulose) (HPC)) 107 % of control; under setting [7], 107 % of control and 87 % of control.

Source of the values: PubChem BioAssay AID330 (DTP/NCI, 2004).
